The molecules below were run against T1, Human TRPC6 (Homo sapiens, UniProt Q9Y210) (assay: Evaluation of TRPC6 channel inhibitory activity (1), FLIPR Calcium 5 Assay Kit, OAG stimulation (Compound Nos. 1-1293)). Conditions: Human TRPC6 stably-expressing cells, OAG 30 μM, FLIPR Calcium 5 Assay Kit; read-out: Inhibitory activity (pIC50 class) (converted).
T1 construct: expressed in transfected cells
T1 sequence (Q9Y210 1-931): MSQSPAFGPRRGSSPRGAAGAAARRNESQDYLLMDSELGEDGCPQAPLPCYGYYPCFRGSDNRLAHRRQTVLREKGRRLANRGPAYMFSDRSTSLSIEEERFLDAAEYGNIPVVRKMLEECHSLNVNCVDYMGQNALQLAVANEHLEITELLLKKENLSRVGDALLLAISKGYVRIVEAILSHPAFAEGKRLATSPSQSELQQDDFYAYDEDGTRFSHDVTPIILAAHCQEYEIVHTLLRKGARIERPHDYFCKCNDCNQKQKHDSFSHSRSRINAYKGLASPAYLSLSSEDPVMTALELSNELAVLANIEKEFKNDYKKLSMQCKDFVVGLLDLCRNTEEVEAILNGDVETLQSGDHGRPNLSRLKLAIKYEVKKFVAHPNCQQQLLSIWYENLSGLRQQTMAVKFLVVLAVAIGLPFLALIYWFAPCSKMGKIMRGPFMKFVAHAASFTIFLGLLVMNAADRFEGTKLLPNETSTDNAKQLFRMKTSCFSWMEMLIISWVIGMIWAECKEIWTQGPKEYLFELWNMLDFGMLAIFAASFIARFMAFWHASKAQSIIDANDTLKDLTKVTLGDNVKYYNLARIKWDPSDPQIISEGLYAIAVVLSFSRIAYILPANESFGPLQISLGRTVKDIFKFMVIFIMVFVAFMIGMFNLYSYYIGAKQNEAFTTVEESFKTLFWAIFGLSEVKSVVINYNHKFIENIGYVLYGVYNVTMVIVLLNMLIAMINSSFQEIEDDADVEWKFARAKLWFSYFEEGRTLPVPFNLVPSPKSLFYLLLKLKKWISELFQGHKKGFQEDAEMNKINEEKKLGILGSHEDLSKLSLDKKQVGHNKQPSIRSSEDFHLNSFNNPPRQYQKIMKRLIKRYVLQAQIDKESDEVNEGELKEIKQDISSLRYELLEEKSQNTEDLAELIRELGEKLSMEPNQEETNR
Type: cell-based
In short: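 Calcium influx read by FLIPR fluorescence in cells stably expressing human TRPC6, dye-loaded 30 min. Compounds preincubated 20 min, then OAG stimulation at 30 μM final. Inhibition fitted by four-parameter logistic regression to give pIC50, reported as +/++/+++ categories.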

| Structure (SMILES) | IC50 [nM] |
| --- | --- |
| Cn1nc(C2CC2)cc1Oc1cc(C#N)ccc1-c1ccc(C(=O)N2CCNCC2)cn1 [compound 780, 3-(5-cyclopropyl-2-methylpyrazol-3-yl)oxy-4-[5-(piperazine-1-carbonyl)pyridin-2-yl]benzonitrile] | > 1000 |
| Cn1nc(C2CC2)cc1Oc1cc(C#N)ccc1-c1ccc(NC(=O)C2CCNCC2)cn1 [compound 781, N-[6-[4-cyano-2-(5-cyclopropyl-2-methylpyrazol-3-yl)oxyphenyl]pyridin-3-yl]piperidine-4-carboxamide] | > 1000 |
| CN(C(=O)C1CCNCC1)c1ccc(-c2ccc(C#N)cc2Oc2cc(C3CC3)nn2C)nc1 [compound 782, N-[6-[4-cyano-2-(5-cyclopropyl-2-methylpyrazol-3-yl)oxyphenyl]pyridin-3-yl]-N-methylpiperidine-4-carboxamide] | > 1000 |
| Cn1nc(C2CC2)cc1Oc1cc(C#N)ccc1-c1ccc(CC(=O)N2CCNCC2)cn1 [compound 783, 3-(5-cyclopropyl-2-methylpyrazol-3-yl)oxy-4-[5-(2-oxo-2-piperazin-1-ylethyl)pyridin-2-yl]benzonitrile] | > 1000 |
| CN(C)CCOc1ccc(-c2ccc(C#N)cc2Oc2cc(C3CC3)nn2C)nn1 [compound 784, 3-(5-cyclopropyl-2-methylpyrazol-3-yl)oxy-4-[6-[2-(dimethylamino)ethoxy]pyridazin-3-yl]benzonitrile] | > 1000 |
| N#Cc1ccc(-c2ccc(CCN)cc2)c(Oc2sc(N3CCCCC3)nc2C(F)(F)F)c1 [compound 785, 4-[4-(2-aminoethyl)phenyl]-3-[[2-piperidin-1-yl-4(trifluoromethyl)-1,3-thiazol-5-yl]oxy]benzonitrile] | 10 to 1000 |
| CN(CC(F)F)c1cc(Oc2cc(C#N)ccc2-c2ncc(CCN)cn2)n(C)n1 [compound 786, 4-[5-(2-aminoethyl)pyrimidin-2-yl]-3-[5-[2,2-difluoroethyl(methyl)amino]-2-methylpyrazol-3-yl]oxybenzonitrile] | < 10 |
| CN(CC(F)(F)F)c1cc(Oc2cc(C#N)ccc2-c2ncc(CCN)cn2)n(C)n1 [compound 787, 4-[5-(2-aminoethyl)pyrimidin-2-yl]-3-[2-methyl-5-[methyl(2,2,2-trifluoroethyl)amino]pyrazol-3-yl]oxybenzonitrile] | < 10 |
| Cc1nc(Oc2cc(C#N)ccc2-c2ncc(CN)cn2)cc(OC2CCC2)n1 [compound 788, 4-[5-(aminomethyl)pyrimidin-2-yl]-3-(6-cyclobutyloxy-2-methylpyrimidin-4-yl)oxybenzonitrile] | > 1000 |
| Cc1nc(Oc2cc(C#N)ccc2-c2ncc(CN)cn2)cc(N2CCC2)n1 [compound 789, 4-[5-(aminomethyl)pyrimidin-2-yl]-3-[6-(azetidin-1-yl)-2-methylpyrimidin-4-yl]oxybenzonitrile] | 10 to 1000 |
| CCN(C)c1cc(Oc2cc(C#N)ccc2-c2ncc(CN)cn2)nc(C)n1 [compound 790, 4-[5-(aminomethyl)pyrimidin-2-yl]-3-[6-[ethyl(methyl)amino]-2-methylpyrimidin-4-yl]oxybenzonitrile] | 10 to 1000 |

Other lines, results leading:

| IC50 [nM] | Structure (SMILES) |
| --- | --- |
| 10 to 1000 | CCN(CC)c1cc(Oc2cc(C#N)ccc2-c2ncc(CN)cn2)nc(C)n1 [compound 791, 4-[5-(aminomethyl)pyrimidin-2-yl]-3-[6-(diethylamino)-2-methylpyrimidin-4-yl]oxybenzonitrile] |
| 10 to 1000 | Cc1nc(Oc2cc(C#N)ccc2-c2ncc(CN)cn2)cc(N(C)C(C)C)n1 [compound 792, 4-[5-(aminomethyl)pyrimidin-2-yl]-3-[2-methyl-6-[methyl(propan-2-yl)amino]pyrimidin-4-yl]oxybenzonitrile] |
| > 1000 | Cc1nc(Oc2cc(C#N)ccc2-c2ncc(CN)cn2)cc(N2CC(F)C2)n1 [compound 793, 4-[5-(aminomethyl)pyrimidin-2-yl]-3-[6-(3-fluoroazetidin-1-yl)-2-methylpyrimidin-4-yl]oxybenzonitrile] |
| 10 to 1000 | Cc1nc(Oc2cc(C#N)ccc2-c2ncc(CN)cn2)cc(N2CCC[C@H]2C)n1 [compound 794, 4-[5-(aminomethyl)pyrimidin-2-yl]-3-[2-methyl-6-[(2R)-2-methylpyrrolidin-1-yl]pyrimidin-4-yl]oxybenzonitrile] |
| < 10 | Cc1nc(Oc2cc(C#N)ccc2-c2ncc(CN)cn2)cc(N2CCC[C@@H]2C)n1 [compound 795, 4-[5-(aminomethyl)pyrimidin-2-yl]-3-[2-methyl-6-[(2S)-2-methylpyrrolidin-1-yl]pyrimidin-4-yl]oxybenzonitrile] |
| 10 to 1000 | Cc1nc(Oc2cc(C#N)ccc2-c2ncc(CN)cn2)cc(N(C)CC2CC2)n1 [compound 796, 4-[5-(aminomethyl)pyrimidin-2-yl]-3-[6-[cyclopropylmethyl(methyl)amino]-2-methylpyrimidin-4-yl]oxybenzonitrile] |
| > 1000 | COCCN(C)c1cc(Oc2cc(C#N)ccc2-c2ncc(CN)cn2)nc(C)n1 [compound 797, 4-[5-(aminomethyl)pyrimidin-2-yl]-3-[6-[2-methoxyethyl(methyl)amino]-2-methylpyrimidin-4-yl]oxybenzonitrile] |
| 10 to 1000 | COCCN(C)c1cc(Oc2cc(C#N)ccc2-c2ncc(CN)cn2)n(C)n1 [compound 798, 4-[5-(aminomethyl)pyrimidin-2-yl]-3-[5-[2-methoxyethyl(methyl)amino]-2-methylpyrazol-3-yl]oxybenzonitrile] |
| < 10 | COCCN(C)c1cc(Oc2cc(C#N)ccc2-c2ccc(CN)cn2)n(C)n1 [compound 799, 4-[5-(aminomethyl)pyridin-2-yl]-3-[5-[2-methoxyethyl(methyl)amino]-2-methylpyrazol-3-yl]oxybenzonitrile] |
| 10 to 1000 | COCCCN(C)c1cc(Oc2cc(C#N)ccc2-c2ncc(CCN)cn2)n(C)n1 [compound 800, 4-[5-(2-aminoethyl)pyrimidin-2-yl]-3-[5-[3-methoxypropyl(methyl)amino]-2-methylpyrazol-3-yl]oxybenzonitrile] |
| < 10 | Cc1nn(CC(C)C)cc1Oc1cc(C#N)ccc1-c1ncc(CCN)cn1 [compound 801, 4-[5-(2-aminoethyl)pyrimidin-2-yl]-3-[3-methyl-1-(2-methylpropyl)pyrazol-4-yl]oxybenzonitrile] |
| < 10 | Cc1nn(CC(C)C)cc1Oc1cc(C#N)ccc1-c1ncc(CN)cn1 [compound 802, 4-[5-(aminomethyl)pyrimidin-2-yl]-3-[3-methyl-1-(2-methylpropyl)pyrazol-4-yl]oxybenzonitrile] |
| < 10 | Cc1nn(C(C)C)cc1Oc1cc(C#N)ccc1-c1ncc(CCN)cn1 [compound 803, 4-[5-(2-aminoethyl)pyrimidin-2-yl]-3-(3-methyl-1-propan-2-ylpyrazol-4-yl)oxybenzonitrile] |
| 10 to 1000 | Cc1c(Oc2cc(C#N)ccc2-c2ncc(CCN)cn2)cnn1CC(C)C [compound 804, 4-[5-(2-aminoethyl)pyrimidin-2-yl]-3-[5-methyl-1-(2-methylpropyl)pyrazol-4-yl]oxybenzonitrile] |
| 10 to 1000 | Cc1c(Oc2cc(C#N)ccc2-c2ncc(CN)cn2)cnn1CC(C)C [compound 805, 4-[5-(aminomethyl)pyrimidin-2-yl]-3-[5-methyl-1-(2-methylpropyl)pyrazol-4-yl]oxybenzonitrile] |
| 10 to 1000 | Cc1c(Oc2cc(C#N)ccc2-c2ncc(CCN)cn2)cnn1C(C)C [compound 806, 4-[5-(2-aminoethyl)pyrimidin-2-yl]-3-(5-methyl-1-propan-2-ylpyrazol-4-yl)oxybenzonitrile] |
